Legend:
[1] = target: T1, HSP27 (Homo sapiens, UniProt P04792); assay: SpeedScreen gel filtration binding test (Sephadex G-25, detection by mass spectroscopy)
Description: For the experimental validation of low-molecular-weight compounds which act as potential HSP27 inhibitors according to the in silico prediction, a method based on gel filtration was employed. The method for detecting molecular bonds using gel filtration was described in 2004 as “SpeedScreen” [Muckenschnabel et al., 2004] and was adapted to meet the requirements of the invention. […] For the separation, PD SpinTraps G-25 from GE Healthcare were used. During the 2-minute centrifugation at 800×g (according to operating instructions), these columns allow molecules with a molecular weight of greater than or equal to 5000 g/mol to pass through, while smaller molecules are retained in the matrix. The target protein HSP27 has a molecular weight of 27000 g/mol and therefore passes through the matrix. […] Non-bound low-molecular-weight compounds are retained by the matrix. Molecules that have passed through the matrix can then be detected by mass spectroscopy. This enables “binders” to be differentiated from “non-binders”. For the experimental validation of low-molecular-weight compounds which act as potential HSP27 inhibitors according to the in silico prediction, a method based on gel filtration was employed. […] Molecules that have passed through the matrix can then be detected by mass spectroscopy. […]

[2] = target: T1, HSP27; assay: Capillary electrophoresis of the CS protein precipitates (precipitated citrate synthase as measure of HSP27 inhibition); assay type: biochemical; conditions: 10 μmol/L; 43° C. for 120 minutes; 750 μmol/L BVDU set at 1
Experimental: (§1) Since the heat-denatured protein aggregates of the citrate synthase from Example 1 are not water-soluble, these can be separated completely from the supernatant by means of centrifugation at room temperature at 16,000×g, 10 min. By using capillary electrophoresis, the compositions of the separated precipitates can be shown and quantified. The relative quantity of protein of precipitated citrate synthase serves as a measure of the efficacy of the test substances.
(§2) In each case, 481 nmol/L HSP27 and 1.44 μmol/L citrate synthase in 40 mmol/L HEPES buffer, pH 7.4, were employed. The relative quantity of protein of the precipitated citrate synthase in each case was normalized using a defined quantity of BSA as internal standard. The relative quantity of protein that precipitated when using 750 μmol/L BVDU was set at 1. The other test substances (2 representatives of phenothiazine derivatives of general formula (V), 2 representatives of purine derivatives of formula (I) or (II)) were each employed at a concentration of 10 μmol/L.
as §1, with “Example 2” for “Example 1”
as §2, with “nM” for “nmol/L”, “thymine” for “purine”, “were” for “were each”, “μmol/L in each case.” for “μmol/L.”
Otherwise, the experiments were performed as described above: […]

T1 sequence (P04792 whole entry): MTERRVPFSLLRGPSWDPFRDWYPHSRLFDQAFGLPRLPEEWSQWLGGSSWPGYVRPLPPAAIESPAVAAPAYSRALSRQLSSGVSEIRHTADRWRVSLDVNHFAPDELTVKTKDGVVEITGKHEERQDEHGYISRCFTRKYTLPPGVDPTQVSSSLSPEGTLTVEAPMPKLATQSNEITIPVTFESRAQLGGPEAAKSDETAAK

- Binding to HSP27 by SpeedScreen (passage through the Sephadex G-25 matrix) [1]: tested positively
- Rel. quantity of protein prec. CS [2]: 0.99
Compound: CC(=O)c1ccc2c(c1)N(CCCN(C)C)c1ccccc1S2 [Acepromazine]
